Test results reported in patent US20130137081A1, “METHOD OF CRYOPRESERVING SELECTED SPERM CELLS” (XY,LLC, priority 1999, published 2013).

Assays:
flow-sorted bull sperm = test: Post-thaw motility of bulk-sorted frozen sperm: Hoechst 33342 dye concentration and laser intensity (Example 3); assay type: cell-based, bovine; conditions: for post-thaw motility: main effect mean
Protocol: Straws were thawed in a 37° C. water bath for 30 sec. Blind estimates of progressive motility were made after incubating samples at 37° C. for 0, 1 and 2 h post-thawing. Each of two observers estimated progressive sperm motility from each of two straws of semen. These four blind estimates for each experimental unit represent subsampling.
Sperm of 6 bulls were collected and prepared as described in Example 1A.
a) Experimental Design. • One ejaculate (2 bulls) and 2 ejaculates on different days (4 bulls) were used in a 2 by 2 design plus control.
b) Staining and Sorting. • Staining, preparation for sorting and sorting sperm were achieved as described in Example 2 except that the Hoechst 33342 dye was added to sperm suspensions at a final concentration of 149 μM or 224 μM; and sperm were bulked-sorted with the laser operating at 100 mW or 150 mW of incident power. Bulk-sorted sperm were collected into 50-ml plastic tubes as described in Example 2. Four tubes containing approximately 15×10^6 total sperm/tube were collected over 1 h for each bull. The sorted sperm were incubated for 1 h at 22° C. to simulate a longer sorting time.
c) Preparation for Freezing. • Following incubation, the sperm were cooled as in Example 2. The sperm were then concentrated by centrifugation at 5° C. at 850×g for 20 minutes. After removing the supernatant, 150 μl of Tris-A fraction extender was added to each 150-μl sperm pellet at 5° C. All of the sperm pellets were suspended by gentle repeated aspiration and the sperm of individual bulls were pooled. Tris B-fraction extender was added stepwise as described in Example 2. A non-stained, non-sorted control for each bull was prepared at 20×10^6 sperm/ml in Tris extender containing 6% glycerol and cooled to 5° C. while the bulk-sorted sperm were being prepared.
d) Equilibration and Freezing. • The control and sorted sperm were packaged into 0.25-ml polyvinylchloride straws as described in Example 2, equilibrated at 5° C. for 3 h and then frozen conventionally.
Straws were thawed and evaluated as described in Example 2.

bull sperm = test: Post-thaw progressive motility of sperm frozen in WET extender with SDS (Example 5A); assay type: cell-based, bovine; conditions: mean of 6 bulls
Protocol: Sperm of 6 bulls were collected and prepared as described in Example 1A. Sperm from each of 6 bulls were extended to 20×10^6/ml in 20% whole egg Tris (“WET”) extender containing 0, 0.03, 0.06, 0.09, or 0.12 percent SDS, packaged into straws and frozen. WET extender was prepared using 3.028 g of Tris[hydroxymethyl]aminomethane, 1.78 g of citric acid monohydrate, and 1.25 g of fructose per 100 ml of double distilled water, to which 20% whole egg (vol/vol) was added. The WET extender was prepared at a pH of about 7.0 and contained a final glycerol concentration of about 6% (vol/vol). The WET extender also contained 1000 IU of penicillin “G” sodium and 100 μg of streptomycin sulfate/ml.

| SMILES | effect of dye concentration on post-thaw sperm motility (flow-sorted bull sperm; 149 μM vs 224 μM) | post-thaw motility (flow-sorted bull sperm; Hoechst 33342 149 μM, 0 h incubation at 37° C.) [%] | post-thaw motility (flow-sorted bull sperm; Hoechst 33342 149 μM, 1 h incubation at 37° C.) [%] | post-thaw motility (flow-sorted bull sperm; Hoechst 33342 149 μM, 2 h incubation at 37° C.) [%] | post-thaw motility (flow-sorted bull sperm; Hoechst 33342 224 μM, 0 h incubation at 37° C.) [%] | post-thaw motility (flow-sorted bull sperm; Hoechst 33342 224 μM, 1 h incubation at 37° C.) [%] | post-thaw motility (flow-sorted bull sperm; Hoechst 33342 224 μM, 2 h incubation at 37° C.) [%] | progressive motile sperm approximately 10 minutes post-thaw (bull sperm; WET extender containing 0.03 percent SDS) [%] | progressive motile sperm approximately 10 minutes post-thaw (bull sperm; WET extender containing 0.06 percent SDS) [%] | progressive motile sperm approximately 10 minutes post-thaw (bull sperm; WET extender containing 0.09 percent SDS) [%] | progressive motile sperm approximately 10 minutes post-thaw (bull sperm; WET extender containing 0.12 percent SDS) [%] |
| --- | --- | --- | --- | --- | --- | --- | --- | --- | --- | --- | --- |
| CCOc1ccc(-c2nc3ccc(-c4nc5ccc(N6CCN(C)CC6)cc5[nH]4)cc3[nH]2)cc1 [Hoechst 33342, bis-Benzimide H-33342] | no effect | 41 | 39 | 30 | 42 | 39 | 30 | – | – | – | – |
| CCCCCCCCCCCCOS(=O)(=O)[O-].[Na+] [SDS, sodium dodecyl sulfate] | – | – | – | – | – | – | – | 51 | 50 | 51 | 48 |
